The target in one assay is AAK1 (Homo sapiens, UniProt Q2M2I8). Briefly: pAP2M1 cell-based assay (in-cell Western). From the text: pAP2M1 Cell-Based Assay (in-Cell Western):
The plate was read on Licor Odyssey CLx imaging system (LICOR) to acquire fluorescence intensity at 700 channel and 800 channel.
Data analysis: Fluorescence intensity at 700 channel served as internal standard and 800 channel were normalized with 700 channel.

The target in assay [1] is T1, GAK (amino acids Q25-N335) (Homo sapiens, UniProt O14976).
T1 construct: against GAK (amino acids Q25-N335); 6His (N, cleaved yes)
T1 sequence (O14976 25-335): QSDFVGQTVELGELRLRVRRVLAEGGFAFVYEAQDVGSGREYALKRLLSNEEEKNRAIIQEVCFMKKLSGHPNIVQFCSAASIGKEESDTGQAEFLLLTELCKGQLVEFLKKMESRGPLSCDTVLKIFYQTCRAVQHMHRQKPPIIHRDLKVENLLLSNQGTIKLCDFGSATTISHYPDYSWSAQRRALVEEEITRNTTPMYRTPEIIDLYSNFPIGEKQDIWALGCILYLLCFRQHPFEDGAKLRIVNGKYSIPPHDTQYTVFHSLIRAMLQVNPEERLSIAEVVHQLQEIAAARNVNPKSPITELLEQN
Briefly: GAK pSENs assay. The assay is classed as biochemical. The protocol:
The recombinant proteins were independently expressed in Escherichia coli BL21(DE3) cells cultured in Luria-Bertani (LB) medium until OD600 reached 0.6-0.8, then cooled to 15° C. and supplemented with 0.5 mM isopropyl 1-thio-D-galactopyranoside (IPTG) induce protein expression 16 h. Cells were harvested and resuspended in lysis buffer (50 mM HEPES pH 7.5, 500 mM NaCl, 5 mM imidazole, 5% glycerol, 0.5 mM Tris (2-carboxyethyl) phosphine (TCEP), cOmplete Protease Inhibitor Tablet (Roche)) and lysed by microfludics high pressure homogenizer (UH-06, Union-Biotech). Proteins were purified using […] chromatography (His FF column, Bestchrom) and eluted stepwise in binding buffer with 20-300 mM imidazole. Removal of the hexahistidine tag was performed at 4° C. overnight using recombinant TEV protease and reacted with BirA to obtain the corresponding biotinylated-AAK1, BIKE or GAK proteins. Further separated in the reverse Strep column (Strep-Tactin® XT, IBA). The Biotin elution sample was collected containing untagged biotinylated protein was then purified by Ion-exchange chromatography (Mono Q 10/100 GL, Cytiva) and Size-exclusion chromatography (HiLoad 16/600 Superdex 200 pg, Cytiva). The pure protein was stored in a storage buffer 50 mM HEPES (pH 7.5), 300 mM NaCl, 5% glycerol at −80° C. Protein were characterized by SDS-PAGE, LC-MS and aSEC.
This example describes one illustrative method for determining the IC50 of the compounds of the present invention against GAK (amino acids Q25-N335).

Assay [2] addresses T2, BIKE (amino acids S38-E345) (K320A, K321A) (Homo sapiens, UniProt Q9NSY1, K320A/K321A).
T2 construct: against BIKE (amino acids S38-E345) (K320A, K321A); 6His (N, cleaved yes)
The experiment in a line: BIKE pSENs assay. The assay is classed as biochemical. The essentials: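 E. coli-expressed, biotinylated, tag-free BIKE at 20 nM in HEPES pH 7.5 buffer with 10 mM MgCl2 preincubated with compound 15 min at 25° C. Reaction started with 30 uM AQT0759 sensor peptide and 40 uM ATP (concentrations before 1:1 mixing).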

For assay [3], the target named is T3, AAK1 (amino acids T27-A365) (Homo sapiens, UniProt Q2M2I8).
T3 construct: against AAK1 (amino acids T27-A365); 6His (N, cleaved yes)
The experiment in a line: AAK1 pSENs assay. The class given is biochemical. The essentials:
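Biotinylated, tag-free AAK1 T27-A365 expressed in E. coli was held at 20 nM in enzyme solution (HEPES pH 7.5, 10 mM MgCl2, DTT, EGTA, Brij35, BSA) and preincubated with compound for 15 min at 25 °C. The reaction was started with an equal volume of substrate solution containing 30 uM AQT0759 peptide and 70 uM ATP. IC50 determined.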

The mark [4] stands for this setting: Hela cells co-transfected with AP2M1 and AAK1, 3 hr treatment, class symbols, read-out: AAK1 In-cell Western: IC50.
The mark [5] stands for this setting: class symbols, read-out: GAK pSENs:IC50.
The mark [6] stands for this setting: class symbols, read-out: BIKE pSENs: IC50.
Where [7] appears, read: class symbols, read-out: AAK1 pSENs: EIC50.

pIC50: −log10 of the molar value. Read-outs that look alike come from different tables or passages of the source.

T2 sequence (Q9NSY1 38-345 K320A/K321A): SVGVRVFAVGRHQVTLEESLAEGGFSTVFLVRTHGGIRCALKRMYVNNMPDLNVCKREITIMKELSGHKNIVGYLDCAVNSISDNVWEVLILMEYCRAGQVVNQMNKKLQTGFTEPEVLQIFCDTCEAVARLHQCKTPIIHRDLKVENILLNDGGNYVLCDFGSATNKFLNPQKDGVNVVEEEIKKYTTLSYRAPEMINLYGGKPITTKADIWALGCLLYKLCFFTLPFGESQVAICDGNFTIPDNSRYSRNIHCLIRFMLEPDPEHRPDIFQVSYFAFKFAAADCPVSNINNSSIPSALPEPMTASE
T3 sequence (Q2M2I8 27-365): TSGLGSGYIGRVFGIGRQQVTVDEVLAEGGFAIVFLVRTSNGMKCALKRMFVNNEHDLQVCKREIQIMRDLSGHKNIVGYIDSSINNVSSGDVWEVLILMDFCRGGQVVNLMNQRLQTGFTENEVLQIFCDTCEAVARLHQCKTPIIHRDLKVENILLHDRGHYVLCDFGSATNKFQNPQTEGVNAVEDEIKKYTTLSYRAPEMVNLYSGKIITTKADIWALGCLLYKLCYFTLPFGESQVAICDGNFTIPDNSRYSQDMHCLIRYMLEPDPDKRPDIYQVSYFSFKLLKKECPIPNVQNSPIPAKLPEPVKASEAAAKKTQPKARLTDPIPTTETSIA
Chain of AAK1 (Q2M2I8 whole entry): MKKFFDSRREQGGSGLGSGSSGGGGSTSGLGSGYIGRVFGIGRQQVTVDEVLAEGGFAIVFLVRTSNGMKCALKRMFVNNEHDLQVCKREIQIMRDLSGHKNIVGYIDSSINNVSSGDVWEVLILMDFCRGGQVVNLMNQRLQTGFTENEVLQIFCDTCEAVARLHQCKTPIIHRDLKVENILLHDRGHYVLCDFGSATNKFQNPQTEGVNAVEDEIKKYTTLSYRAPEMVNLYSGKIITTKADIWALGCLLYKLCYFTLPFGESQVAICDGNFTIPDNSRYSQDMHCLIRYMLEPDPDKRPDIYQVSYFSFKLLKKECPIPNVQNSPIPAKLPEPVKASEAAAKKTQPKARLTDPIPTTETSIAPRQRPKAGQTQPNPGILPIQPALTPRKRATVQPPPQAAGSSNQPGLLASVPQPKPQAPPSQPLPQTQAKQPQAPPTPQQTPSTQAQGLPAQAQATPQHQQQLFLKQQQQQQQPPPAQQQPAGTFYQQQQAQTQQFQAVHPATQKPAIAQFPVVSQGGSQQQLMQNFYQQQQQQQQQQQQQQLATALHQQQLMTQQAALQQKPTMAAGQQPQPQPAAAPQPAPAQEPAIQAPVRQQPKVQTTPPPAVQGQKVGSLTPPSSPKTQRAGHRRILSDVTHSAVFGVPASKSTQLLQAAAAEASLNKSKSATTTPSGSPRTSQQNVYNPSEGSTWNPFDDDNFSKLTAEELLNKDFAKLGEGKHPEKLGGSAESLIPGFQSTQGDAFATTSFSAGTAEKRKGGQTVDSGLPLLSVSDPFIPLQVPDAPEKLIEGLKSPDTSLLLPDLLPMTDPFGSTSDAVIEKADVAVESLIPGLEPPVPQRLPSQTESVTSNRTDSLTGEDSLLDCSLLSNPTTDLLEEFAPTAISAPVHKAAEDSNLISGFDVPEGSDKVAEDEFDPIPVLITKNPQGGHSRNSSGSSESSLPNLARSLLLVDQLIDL

Take `COc1cnc(OC2CC2)c(-c2cnn3ccc(N4CCN(C(=O)O[C@H]5CC(=O)N(C)C5)CC4)nc23)c1` [Compound I-87]: the pIC50 at AAK1 (setting [4]) is 6.30 to 6.82; in assay [1] (setting [5]) it was 5.82 to 6.30; in assay [2] (setting [6]) it was 6.82 to 7.29; in assay [3] (setting [7]), 7.30 to 9.00.

`c1cc2nc(N3CCNCC3)ccn2n1` [Compound I-105, 5-piperazin-1-ylpyrazolo[1,5-a]pyrimidine]: the pIC50 (on AAK1; in assay [1]; in assay [2]; in assay [3]) was less than 5.82 throughout.

Take `Clc1cnn2ccc(N3CCNCC3)nc12` [Compound I-104, 3-chloro-5-piperazin-1-yl-pyrazolo[1,5-a]pyrimidine]: the pIC50 (at AAK1 (setting [4]); in assay [1] (setting [5]); in assay [2] (setting [6]); in assay [3] (setting [7])) was less than 5.82 in each case.

Take `CC(C)Oc1ncccc1-c1cnn2ccc(N3CCN(C(=O)OC4(C)CCNC4)CC3)nc12` (centres unmarked) [Compound I-21-5, (3-methylpyrrolidin-3-yl)-4-[3-(2-isopropoxy-3-pyridyl)pyrazolo[1,5-a]pyrimidin-5-yl]piperazine-1-carboxylate]: the pIC50 is 6.30 to 6.82 on AAK1 (setting [4]), 6.30 to 6.82 in assay [1] (setting [5]), 6.30 to 6.82 in assay [2] (setting [6]) and 7.30 to 9.00 in assay [3] (setting [7]).

As for `COc1ncccc1-c1cnn2ccc(NCCN(C)C(=O)O[C@H]3CO[C@H]4OCC[C@H]43)nc12` [Compound I-70, (3R,3aS,6aR)-hexahydrofuro[2,3-b]furan-3-yl (2-((3-(2-methoxypyridin-3-yl)pyrazolo[1,5-a]pyrimidin-5-yl)amino)ethyl)(methyl)carbamate], the pIC50 is 5.82 to 6.30 at AAK1 (setting [4]), 5.82 to 6.30 in assay [1] (setting [5]), 6.82 to 7.29 in assay [2] (setting [6]) and 7.30 to 9.00 in assay [3] (setting [7]).

With `COc1ncccc1-c1cnn2ccc(N3CCN(C(=O)OC4(C)COC4)CC3)nc12` [RC-1, (3-methyloxetan-3-yl)-4-[3-(2-methoxy-3-pyridyl)pyrazolo[1,5-a]pyrimidin-5-yl]piperazine-1-carboxylate, reference compound], the pIC50 at AAK1 (Hela cells co-transfected with AP2M1 and AAK1, 3 hr treatment, numeric values, read-out: AAK1 In-cell Western: IC50) was 6.80; in assay [1] (numeric values, read-out: GAK pSENs:IC50), 5.98; in assay [2] (numeric values, read-out: BIKE pSENs: IC50), 7.07; in assay [3] (numeric values, read-out: AAK1 pSENs: EIC50), 8.06.

Regarding `C#C[C@@]1(OC(=O)N2CCN(c3ccn4ncc(-c5cccnc5OC5CC5)c4n3)CC2)CCNC1` [Compound I-16, [(3S)-3-Ethynylpyrrolidin-3-yl]-4-[3-[2-(cyclopropoxy)-3-pyridyl]pyrazolo[1,5-a]pyrimidin-5-yl]piperazine-1-carboxylate], the pIC50 at AAK1 (setting [4]) is 7.30 to 9.00; in assay [1] (setting [5]) it was 6.82 to 7.29; in assay [2] (setting [6]) it was 7.30 to 9.00; in assay [3] (setting [7]), 7.30 to 9.00.

For `C#CC1(OC(=O)N2CCN(c3ccn4ncc(-c5cccnc5OC5CC5)c4n3)CC2)CCNC1` (centres unmarked) [Compound I-16-7, 3-ethynylpyrrolidin-3-yl-4-(3-(2-cyclopropoxypyridin-3-yl)pyrazolo[1,5-a]pyrimidin-5-yl)piperazine-1-carboxylate], the pIC50 at AAK1 (setting [4]) is 7.30 to 9.00; in assay [1] (setting [5]), 6.82 to 7.29; in assay [2] (setting [6]), 6.82 to 7.29; in assay [3] (setting [7]) it was 7.30 to 9.00.

With `Brc1cnn2ccc(N3CCNCC3)nc12` [Compound I-103, 3-bromo-5-piperazin-1-yl-pyrazolo[1,5-a]pyrimidine], the pIC50 (at AAK1; in assay [1]; in assay [2]; in assay [3]) was less than 5.82 in each case.

For `COc1ncccc1-c1cnn2ccc(N3CCN(C(=O)OC4(C)CCNC4)CC3)nc12` (centres unmarked) [Compound I-8, (3-Methylpyrrolidin-3-yl)-4-[3-(2-methoxy-3-pyridyl)pyrazolo[1,5-a]pyrimidin-5-yl]piperazine-1-carboxylate], the pIC50 on AAK1 (setting [4]) was 7.30 to 9.00; in assay [1] (setting [5]), 6.30 to 6.82; in assay [2] (setting [6]) it was 7.30 to 9.00; in assay [3] (setting [7]) it was 7.30 to 9.00.

On to `Oc1ncccc1-c1cnn2ccc(N3CCNCC3)nc12` [Compound I-106, 3-(5-piperazin-1-ylpyrazolo[1,5-a]pyrimidin-3-yl)pyridin-2-ol], for which the pIC50 on AAK1 (setting [4]) was less than 5.82; in assay [1] (setting [5]), less than 5.82; in assay [2] (setting [6]), 6.30 to 6.82; in assay [3] (setting [7]), 5.82 to 6.30.

As for `CC(C)(C)OC(=O)NCCNc1ccc2ncc(-c3cccnc3OC3CC3)n2n1` [Compound I-129, tert-butyl N-[2-[[3-[2-(cyclopropoxy)-3-pyridyl]imidazo[1,2-b]pyridazin-6-yl]amino]ethyl]carbamate], the pIC50 on AAK1 (setting [4]) is 5.82 to 6.30; in assay [1] (setting [5]), 6.30 to 6.82; in assay [2] (setting [6]), 6.82 to 7.29; in assay [3] (setting [7]), 7.30 to 9.00.

With `CN(CCNc1ccn2ncc(-c3cccnc3OC3CC3)c2n1)C(=O)O[C@H]1CO[C@H]2OCC[C@H]21` [Compound I-71, (3R,3aS,6aR)-hexahydrofuro[2,3-b]furan-3-yl (2-((3-(2-cyclopropoxypyridin-3-yl)pyrazolo[1,5-a]pyrimidin-5-yl)amino)ethyl)(methyl)carbamate], the pIC50 at AAK1 (setting [4]) is 5.82 to 6.30; in assay [1] (setting [5]), 5.82 to 6.30; in assay [2] (setting [6]), 5.82 to 6.30; in assay [3] (setting [7]), 7.30 to 9.00.

Take `CC(C)(C)OC(=O)N1CCC(N2C[C@H](OC(=O)N3CCN(c4ccn5ncc(-c6cccnc6OC6CC6)c5n4)CC3)CC2=O)CC1` [Compound I-31, (R)-1-(1-(tert-Butoxycarbonyl)piperidin-4-yl)-5-oxopyrrolidin-3-yl 4-(3-(2-cyclopropoxypyridin-3-yl)pyrazolo[1,5-a]pyrimidin-5-yl)piperazine-1-carboxylate]: the pIC50 on AAK1 (setting [4]) was less than 5.82; in assay [1] (setting [5]), 5.82 to 6.30; in assay [2] (setting [6]), 6.30 to 6.82; in assay [3] (setting [7]) it was 6.30 to 6.82.

As for `C#C[C@]1(OC(=O)N2CCN(c3ccn4ncc(-c5cccnc5OC5CC5)c4n3)CC2)CCNC1` [Compound I-15, [(3R)-3-Ethynylpyrrolidin-3-yl]-4-[3-[2-(cyclopropoxy)-3-pyridyl]pyrazolo[1,5-a]pyrimidin-5-yl]piperazine-1-carboxylate], the pIC50 at AAK1 (setting [4]) is 6.82 to 7.29; in assay [1] (setting [5]), 6.30 to 6.82; in assay [2] (setting [6]), 6.30 to 6.82; in assay [3] (setting [7]) it was 7.30 to 9.00.

For `CN1C[C@@H](OC(=O)N2CCN(c3ccn4ncc(Cl)c4n3)CC2)CC1=O` [Compound I-96, [(3S)-1-methyl-5-oxo-pyrrolidin-3-yl]-4-(3-chloropyrazolo[1,5-a]pyrimidin-5-yl)piperazine-1-carboxylate], the pIC50 (at AAK1 (setting [4]); in assay [1] (setting [5]); in assay [2] (setting [6]); in assay [3] (setting [7])) was less than 5.82 each time.

In the case of `C[C@@]1(OC(=O)N2CCN(c3ccn4ncc(-c5cccnc5OC5CC5)c4n3)CC2)CCN(CC(N)=O)C1` [Compound I-51, (R)-1-(2-amino-2-oxoethyl)-3-(methylpyrrolidin-3-yl)-4-(3-(2-cyclopropoxypyridin-3-yl)pyrazolo[1,5-a]pyrimidin-5-yl)piperazine-1-carboxylate], the pIC50 on AAK1 (setting [4]) is 6.30 to 6.82; in assay [1] (setting [5]), 5.82 to 6.30; in assay [2] (setting [6]) it was 5.82 to 6.30; in assay [3] (setting [7]), 7.30 to 9.00.

The values above are taken from US20250122207A1, “AP2 ASSOCIATED KINASE 1 INHIBITORS AND USES THEREOF” (Satellos Bioscience Inc., priority 2023, published 2025).
